Numbered stars: 1 amine (or outer) side, 2 acyl side, 3 side chain; on linkers, the order of the positions; unused ones are H or OH. Square brackets hold non-standard residues; d marks the D form. Peptide text beside a SMILES is read from it. * marks the point of attachment. X2 = O=C(Cc1ccc(N[*:1])cc1)[*:2]; NH(2-Me-phenyl) = Cc1ccccc1N*; PhAc = O=C(Cc1ccccc1)*; NHcHex = C1CCC(N*)CC1; CO = O=C([*:1])[*:2]; NHPh = c1ccc(N*)cc1; Bn = c1ccc(C*)cc1; NHiBu = CC(C)CN*; NHBu = CCCCN*

These results are taken from patent publication US6596687B1, “Cell adhesion inhibitors” (Biogen, Inc., priority 1995, dated 2003).

T1 sequence (P13612 34-1032): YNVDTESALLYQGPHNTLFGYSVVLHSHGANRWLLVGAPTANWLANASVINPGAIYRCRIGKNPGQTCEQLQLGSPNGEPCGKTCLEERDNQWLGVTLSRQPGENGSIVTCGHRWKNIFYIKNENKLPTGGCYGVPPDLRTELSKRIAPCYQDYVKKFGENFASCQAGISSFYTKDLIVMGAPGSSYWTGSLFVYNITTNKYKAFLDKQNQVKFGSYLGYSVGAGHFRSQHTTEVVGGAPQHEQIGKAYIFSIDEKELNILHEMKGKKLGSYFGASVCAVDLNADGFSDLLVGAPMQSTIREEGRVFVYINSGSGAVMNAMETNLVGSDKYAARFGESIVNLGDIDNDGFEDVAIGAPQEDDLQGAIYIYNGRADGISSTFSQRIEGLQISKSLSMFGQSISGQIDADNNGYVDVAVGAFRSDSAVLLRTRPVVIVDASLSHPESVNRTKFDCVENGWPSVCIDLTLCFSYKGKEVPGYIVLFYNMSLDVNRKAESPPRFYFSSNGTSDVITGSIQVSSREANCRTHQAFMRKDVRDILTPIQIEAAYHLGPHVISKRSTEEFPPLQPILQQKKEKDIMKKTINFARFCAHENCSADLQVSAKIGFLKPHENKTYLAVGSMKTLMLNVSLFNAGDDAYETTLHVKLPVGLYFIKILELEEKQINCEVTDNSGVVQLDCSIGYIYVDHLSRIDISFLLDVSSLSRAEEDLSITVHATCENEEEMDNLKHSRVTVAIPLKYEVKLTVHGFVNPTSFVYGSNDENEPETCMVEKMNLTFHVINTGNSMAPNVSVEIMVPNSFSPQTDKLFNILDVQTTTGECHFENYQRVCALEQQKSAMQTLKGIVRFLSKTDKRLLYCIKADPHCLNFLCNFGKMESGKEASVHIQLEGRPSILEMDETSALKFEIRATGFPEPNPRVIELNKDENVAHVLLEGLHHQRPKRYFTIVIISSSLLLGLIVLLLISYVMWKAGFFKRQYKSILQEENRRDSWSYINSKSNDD
T1 sequence (P05556 21-798): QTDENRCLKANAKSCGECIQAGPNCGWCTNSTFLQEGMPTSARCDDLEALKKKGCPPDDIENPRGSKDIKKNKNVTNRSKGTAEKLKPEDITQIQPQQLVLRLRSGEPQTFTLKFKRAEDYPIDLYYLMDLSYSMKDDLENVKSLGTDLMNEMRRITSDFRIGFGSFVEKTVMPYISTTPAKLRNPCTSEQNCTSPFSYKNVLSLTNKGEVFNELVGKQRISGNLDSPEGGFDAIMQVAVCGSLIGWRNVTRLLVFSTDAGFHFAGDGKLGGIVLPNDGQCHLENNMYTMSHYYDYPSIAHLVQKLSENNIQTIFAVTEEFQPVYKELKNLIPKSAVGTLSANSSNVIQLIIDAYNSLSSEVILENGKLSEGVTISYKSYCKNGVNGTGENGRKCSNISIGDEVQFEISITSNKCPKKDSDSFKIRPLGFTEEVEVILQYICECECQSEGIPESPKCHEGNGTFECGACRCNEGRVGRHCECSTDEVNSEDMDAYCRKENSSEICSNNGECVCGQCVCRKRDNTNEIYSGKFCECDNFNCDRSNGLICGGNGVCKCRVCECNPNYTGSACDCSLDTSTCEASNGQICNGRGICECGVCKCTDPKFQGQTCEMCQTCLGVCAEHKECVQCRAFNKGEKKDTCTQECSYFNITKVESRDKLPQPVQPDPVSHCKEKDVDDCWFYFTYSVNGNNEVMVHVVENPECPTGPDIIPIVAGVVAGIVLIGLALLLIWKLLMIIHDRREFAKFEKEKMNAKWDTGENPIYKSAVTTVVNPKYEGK

This assay has as its target T1, VLA4 (Homo sapiens, UniProt P05556+P13612).
T1 construct: endogenous in cells; host or cells: Ramos cells
The assay can be described thus: Inhibition of VLA4-dependent adhesion of Ramos cells to BSA-CS1. The format is cell-based. Conditions: Ramos cells, BSA-CS1 coated wells, 2 mM MnCl2, 30 minutes at room temperature; read-out: IC50. An excerpt: For example, the cell adhesion inhibitory activity of these compounds may be measured by determining the concentration of inhibitor required to block the binding of VLA-4-expressing cells to fibronectin- or CS1-coated plates. In this assay microtiter wells are coated with either fibronectin (containing the CS1-sequence) or CS-1. If CS-1 is used, it must be conjugated to a carrier protein, such as bovine serum albumin, in order to bind to the wells. Once the wells are coated, varying concentrations of the test compound are then added together with appropriately labelled, VLA-4-expressing cells. Alternatively, the test compound may be added first and allowed to incubate with the coated wells prior to the addition of the cells. The cells are allowed to incubate in the wells for at least 30 minutes. Following incubation, the wells are emptied and washed. Inhibition of binding is measured by quantitating the fluorescence or radioactivity bound to the plate for each of the various concentrations of test compound, as well as for controls containing no test compound.
VLA-4-expressing cells that may be utilized in this assay include Ramos cells, Jurkat cells, A375 melanoma cells, as well as human peripheral blood lymophocytes (PBLs). The cells used in this assay may be fluorescently or radioactively labelled.
This assay was used to assess the potency of VLA4-directed inhibitory compounds of this invention. 1.
We dissolved BSA-SMCC (Pierce Chemical, Rockford, Ill.; Catalog #77115) in H2O at a concentration of 10 mg/mL. [SEQ ID NO:4]: […](“Cys-Tyr-CS1 peptide”), which we synthesized by conventional solid phase chemistry and purified by HPLC, was dissolved in 10 mM HEPES pH 5, 50 mM NaCl and 0.1 mM EDTA also at a concentration of 10 mg/mL. We then mixed 500 μL of BSA-SMCC, 250 μL of Cys-Tyr-CS1 peptide and 75 μL of 1 mM HEPES pH 7.5 and allowed the conjugation reaction to proceed for 30 minutes. We stopped the reaction by adding 1 μL of beta-mercaptoethanol. Samples were analyzed for cross-linking by SDS-PAGE.
We coated the wells of a Linbro titertek polystyrene 96-well flat bottom plate (Flow Laboratories, Maclean, Va.; catalog #76-231-05) with 100 μL of the above-described BSA-CS1 solution diluted to 1 μg/mL in 0.05 M NaHCO3 (15 mM NaHCO3, 35 mM Na2CO3) pH 9.2. Some wells were not coated with CS1 in order to assess non-specific cell binding (NSB). The plate was then incubated overnight at 4° C.
Following this incubation, the contents of the wells were removed by inverting and blotting the plate. All of the wells were then blocked with 100 μL of 1% BSA in PBS, 0.02% NaN3, for a minimum of one hour at room temperature.
Ramos cells are grown, maintained and labelled in RPMI 1640 culture medium containing 1% BSA. Just prior to running the assay, we added 2′, 7′-bis-(2-carboxyethyl)-5(and -6)carboxyfluorescein acetoxymethyl ester (“BCECF-AM”; Molecular Probes Inc., Eugene, Oregon; catalog #B-1150) to a final concentration of 2 μM to a culture of Ramos cells (4×10^6 cells/mL). We incubated the cells for 20 minutes at 37° C.
Following labelling, the cells were washed twice in assay buffer (24 mM TRIS, 137 mM NaCl, 2.7 mM KCl, pH 7.4, containing 0.1 BSA and 2mM glucose) to remove any cations originating from the culture medium. The cells were then resuspended in assay buffer to 4×10^6 cells/mL and 2 mM MnCl2 was added to upregulate VLA4 on the surface of the cells.
Immediately prior to running the assay, we removed the BSA blocking solution from the 96-well plates and washed the wells with 100 μL of assay buffer. We then added to each well 25 μL of test cell adhesion inhibitory compound at 2×the final concentration and 25 μL of the labelled Ramos cells. […] Each concentration of compound was tested in triplicate. The compound and cells are allowed to incubate for 30 minutes at room temperature.
Usually IC50 stands for the concentration at which inhibition is half-maximal. `CC(C)C[C@H](NC(=O)Cc1ccccc1)C(=O)N[C@@H](CC(=O)O)C(=O)N[C@H](C(=O)N1CCC[C@H]1C(=O)O)C(C)C` [Compound 34]: the IC50 lay in the range of 0.05 to 10 µM.

Consider `CC(C)C[C@H](NC(=O)C1Cc2ccccc2CN1)C(=O)N[C@@H](CCC(=O)O)C(=O)N[C@H](C(=O)O)C(C)C` (stereo partly shown) [Compound 31] (HELM PEPTIDE1{[O=C(C1Cc2ccccc2CN1)[*:2]].L.E.V}$$$$V2.0), for which the IC50 is greater than 10 µM. The result for `CC(C)C[C@H](NC(=O)Cc1ccc(NC(=O)Nc2ccccc2)cc1)C(=O)N[C@@H](CC(=O)O)C(=O)N[C@H](C(=O)N1CCC[C@H]1C(=O)NC1CCCCC1)C(C)C` [Compound 324] ({NHPh-CO}-[X2]LDVP-NHcHex) reads 0.05 to 10 µM.

As to `CC(C)C[C@H](NC(=O)c1cc2ccccc2cn1)C(=O)N[C@@H](CC(=O)O)C(=O)N[C@H](C(=O)O)C(C)C` [Compound 69], the IC50 was greater than 10 µM. The result for `CC(C)C[C@H](NC(=O)c1ccc2ccccc2n1)C(=O)N[C@@H](CC(=O)O)C(=O)N[C@H](C(=O)OC(C)(C)C)C(C)C` [Compound 158] reads greater than 10 µM; that for `CC(C)C[C@H](NC(=O)Cc1ccc(NC(=O)Nc2ccccc2)cc1)C(=O)N[C@@H](CC(=O)O)C(=O)N1CCCCC1` [Compound 218], 0.05 to 10 µM; that for `CC(C)[C@H](NC(=O)[C@H](CC(=O)O)NC(=O)[C@H](C)NC(=O)c1cc2ccccc2cn1)C(=O)O` [Compound 97], greater than 10 µM. For `CC(C)C[C@H](NC(=O)c1ccc2ccccc2n1)C(=O)N[C@@H](CC(=O)O)C(=O)N[C@H](C(=O)N1CCN(c2ccccc2)CC1)C(C)C` [Compound 127], the IC50 is greater than 10 µM. The result for `CCCCOC(=O)[C@@H](NC(=O)[C@H](CC(=O)O)NC(=O)[C@H](CC(C)C)NC(=O)c1ccc2ccccc2n1)[C@@H](C)O` [Compound 195] reads greater than 10 µM. For `CC(C)C[C@H](NC(=O)c1cc2ccccc2cn1)C(=O)N[C@@H](CC(=O)O)C(=O)N[C@@H](Cc1ccccc1)C(=O)O` [Compound 93], the IC50 was greater than 10 µM. The result for `Cc1ccccc1NC(=O)Nc1ccc(CC(=O)N[C@@H](CC(C)C)C(=O)N[C@@H](CC(=O)O)C(=O)N[C@H](C(=O)N2CCC[C@H]2C(N)=O)C(C)C)cc1` [Compound 148] ({NH(2-Me-phenyl)-CO}-[X2]LDVP-NH2) reads less than 0.05 µM; that for `CC(C)[C@H](NC(=O)[C@H](CC(=O)O)NC(=O)[C@H](Cc1ccccc1)NC(=O)c1cc2ccccc2cn1)C(=O)O` [Compound 81], greater than 10 µM; that for `CC(C)C[C@H](NC(=O)CCc1ccccc1)C(=O)N[C@@H](CC(=O)O)C(=O)N[C@H](C(=O)N1CCC[C@H]1C(=O)O)C(C)C` [Compound 36], greater than 10 µM.

As for `CC(C)C[C@H](NC(=O)Cc1ccc(NC(=O)Nc2ccccc2)cc1)C(=O)N[C@@H](CC(=O)O)C(=O)N[C@H](C(=O)N1CCCCC1)C(C)C` [Compound 322], the IC50 was less than 0.05 µM. The result for `CC(C)CC(NC(=O)Cc1ccc(NC(=O)Nc2ccccc2)cc1)C(=O)NC(CC(=O)O)C(=O)NC1CCCCC1` (stereo not shown) [Compound 216] reads 0.05 to 10 µM. As to `CC(C)C[C@H](NC(=O)CCc1ccc(O)cc1)C(=O)N[C@@H](CC(=O)O)C(=O)N[C@H](C(=O)N1CCC[C@H]1C(=O)O)C(C)C` [Compound 38], the IC50 was greater than 10 µM. Regarding `CNC(=O)[C@H](COCc1ccccc1)NC(=O)[C@H](CC(=O)O)NC(=O)[C@H](CC(C)C)NC(=O)Cc1ccccc1` [Compound 352] (PhAc-Leu-Asp-Ser(Bn)-NHMe), the IC50 was greater than 10 µM.

With `CC(C)C[C@H](NC(=O)CCCCCc1ccccc1)C(=O)N[C@@H](CC(=O)O)C(=O)N[C@H](C(=O)O)C(C)C` [Compound 104], the IC50 is greater than 10 µM.

Regarding `CC(C)C[C@H](NC(=O)c1cc2ccccc2cn1)C(=O)N[C@@H](CS)C(=O)N[C@H](C(=O)O)C(C)C` [Compound 9], the IC50 is greater than 10 µM. On to `CC(C)C[C@H](NC(=O)Cc1ccc(NC(=O)Nc2ccccc2)cc1)C(=O)N[C@@H](CC(=O)O)C(=O)NC(C)C` [Compound 215], for which the IC50 was in the range of 0.05 to 10 µM. With `COC(=O)[C@@H](NC(=O)[C@H](CC(=O)O)NC(=O)[C@H](CC(C)C)N(Cc1ccccc1)C(C)=O)C(C)C` [Compound 28], the IC50 is greater than 10 µM.

Take `CCCCOC(=O)[C@@H](NC(=O)[C@H](CC(=O)O)NC(=O)[C@H](CC(C)C)NC(=O)Cc1ccccc1)C(C)C` [Compound 196]: the IC50 is greater than 10 µM. The result for `CC(C)CNC(=O)[C@H](CC(=O)O)NC(=O)[C@H](CC(C)C)NC(=O)CCC(=O)Nc1ccccc1` [Compound 111] reads greater than 10 µM; that for `CC(C)C[C@H](NC(=O)C1(N)CCc2ccccc2C1)C(=O)N[C@@H](CC(=O)O)C(=O)N[C@H](C(=O)O)C(C)C` (stereo partly shown) [Compound 67] (HELM PEPTIDE1{[NC1(C(=O)[*:2])CCc2ccccc2C1].L.D.V}$$$$V2.0), greater than 10 µM; that for `CC(C)[C@H](NC(=O)[C@H](CC(=O)O)NC(=O)OC(C)(C)C)C(=O)N1CCC[C@H]1C(=O)O` [Compound 149] (HELM PEPTIDE1{[CC(C)(C)OC(=O)[*:2]].D.V.P}$$$$V2.0), greater than 10 µM.

In the case of `CC(C)C[C@H](NC(=O)CCC(=O)N(C)c1ccccc1)C(=O)N[C@@H](CC(=O)O)C(=O)N[C@H](C(=O)O)C(C)C` [Compound 109], the IC50 is greater than 10 µM.

With `CCCCNC(=O)N[C@@H](CC(=O)O)C(=O)N[C@H](C(=O)OC)C(C)C` [Compound 169] ({NHBu-CO}-Asp-Val-OMe), the IC50 is greater than 10 µM.

Turning to `COC(=O)[C@@H]1CCCN1C(=O)[C@@H](NC(=O)[C@H](CC(=O)O)NC(=O)[C@H](CC(C)C)NC(=O)c1ccc2ccccc2n1)C(C)C` [Compound 41], the IC50 lay in the range of 0.05 to 10 µM. For `CNC(=O)[C@@H](NC(=O)[C@H](CC(=O)O)NC(=O)[C@H](CC(C)C)N(C)C(=O)CCc1ccc(O)cc1)C(C)C` [Compound 46] the value was greater than 10 µM; for `COC(=O)[C@@H](NC(=O)[C@H](CC(=O)O)NC(=O)[C@H](CC(C)C)NC(=O)CCc1ccc(O)cc1)C(C)C` [Compound 19], greater than 10 µM. As to `CC(C)C[C@H](NC(=O)OC(C)(C)C)C(=O)N[C@@H](CC(=O)O)C(=O)N[C@H](C(=O)NC(C)(C)C)[C@@H](C)O` [Compound 62] (HELM PEPTIDE1{[CC(C)(C)OC(=O)[*:2]].L.D.T.[CC(C)(C)N[*:1]]}$$$$V2.0), the IC50 is greater than 10 µM. Take `CNC(=O)[C@@H](NC(=O)[C@H](CC(=O)O)NC(=O)[C@H](Cc1ccc(O)cc1)NC(=O)Cc1ccccc1)C(C)C` [Compound 129] (HELM PEPTIDE1{[O=C(Cc1ccccc1)[*:2]].Y.D.V.[CN[*:1]]}$$$$V2.0): the IC50 is greater than 10 µM. For `CC(C)CNC(=O)[C@@H]1CCCN1C(=O)[C@@H](NC(=O)[C@H](CC(=O)O)NC(=O)[C@H](CC(C)C)NC(=O)Cc1ccc(NC(=O)Nc2ccccc2)cc1)C(C)C` [Compound 328] ({NHPh-CO}-[X2]LDVP-NHiBu) the value was less than 0.05 µM; for `CC(C)[C@H](NC(=O)[C@H](CC(=O)O)NC(=O)OC(C)(C)C)C(=O)O` [Compound 68] (HELM PEPTIDE1{[CC(C)(C)OC(=O)[*:2]].D.V}$$$$V2.0), greater than 10 µM. For the compound `CC(C)C[C@H](NC(=O)c1ccc2ccccc2n1)C(=O)N[C@@H](CC(=O)O)C(=O)NC(CO)C(C)C` (stereo partly shown) [Compound 174], the IC50 is 0.05 to 10 µM. The result for `CC(=O)N[C@@H](Cc1ccccc1)C(=O)N[C@@H](CC(C)C)C(=O)N[C@@H](CC(=O)O)C(=O)N[C@H](C(=O)O)C(C)C` [Compound 152] (Ac-FLDV-OH) reads greater than 10 µM. For `CC(C)CNC(=O)[C@H](CC(=O)O)NC(=O)[C@H](CC(C)C)NC(=O)NC(C)(C)C` [Compound 171] the value was greater than 10 µM.
